Results on 2 compounds are retold here after patent publication US20240165089A1, “METHOD FOR TREATING MYOPIA WITH VINPOCETINE” (EYE HOSPITAL, WENZHOU MEDICAL UNIVERSITY, priority 2021, published 2024).

The test system of data set [1] is form deprivation myopia model of guinea pigs. As to the kind of experiment: FDM guinea pig model, eye drops (non-invasive administration). In kind it is in vivo. How it is done:
The purpose of this experiment was to evaluate the effect of vinpocetine on myopia through non-invasive administration. All tested drugs were formulated into eye drops. […] No other active substances or excipients were added to the above eye drops.

For data set [2] the test system is unchanged. Nature of the data set: FDM guinea pig model, subconjunctival injection, salmeterol/tiotropium/vinpocetine. Conditions: 0.1% atropine, 2 weeks. The text has this:
The form deprivation myopia model of guinea pigs described in the present invention was used to evaluate the efficacy. […] On the first day of the experiment, guinea pigs were subjected to form deprivation at 8 a.m. using a mask method, with the right eye covered (experimental eye) and the left eye uncovered (contralateral eye). Starting from the day of modeling, solvents or drugs for the corresponding groups were given to the experimental eyes at 9-10 a.m. every day by eyeball subconjunctival injection at an injection volume of 100 μL, once a day for 2 weeks. The refraction and axial parameters of the animals were detected before the start of the efficacy experiment and at the end of the experiment. All data collection and processing methods were the same as in other embodiments of the present invention. The statistical basis was the difference between the experimental eye and the contralateral eye of the same subject individual.

For data set [3] the test system is unchanged. As to the kind of experiment: FDM guinea pig model, subconjunctival injection of AVA. In kind it is in vivo. Conditions: 1 week. On the procedure: The modeling method for myopic individuals was the same as other embodiments of the present invention. […] No other active substances or excipients were added.
The mark [4] stands for this setting: 0.1% atropine eye drops, 2 weeks.
Setting [5] is: 0.1% atropine eye drops, 2 weeks (rounded and actual value).

SMILES strings stand for the structures. Where “and” joins values, the source holds several entries; their conditions need not be identical. Equal values may be shown once.

On to `CN1[C@@H]2CC[C@H]1C[C@@H](OC(=O)C(CO)c1ccccc1)C2` (stereo partly shown) [atropine], for which the “therapeutic effect on the guinea pig myopia model” value in data set [1] (0.01% atropine eye drops, same administration conditions) is given as “did not have any therapeutic effect”. In addition, in data set [1] (setting [4]), the “inhibition rate for the vitreous chamber depth” value came to 21.8% and the refraction inhibition rate was found to be 40.0%. In addition, in data set [1] (setting [5]), the “axial length difference between the eyes” value is 0.11±0.05 mm and 0.1093±0.0530 mm; the “vitreous chamber depth difference between the eyes” value was 0.11±0.05 mm and 0.1107±0.0502 mm. Moreover, in data set [1] (0.1% atropine eye drops, during administration), the pupil dilation entry was “Adverse reactions of pupil dilation occurred”. For the same compound, in data set [1] (FDM, 0.1% atropine eye drops 25 μL twice a day, 2 weeks), the “refraction difference between the eyes (model-induced myopia)” value is on record as −3.93±1.75 D. For the same compound, in data set [2], the “corneal curvature (RCC), anterior chamber depth (ACD) and lens thickness (LT)” value is given as “not affected by the drug”. Moreover, the pupil dilation result in data set [2] (subconjunctival) is recorded as “pupil dilation occurred”. In data set [2] (FDM, subconjunctival), the “refraction change towards negative, axial length elongation and vitreous chamber depth increase vs negative control” value is on record as “significantly inhibited”. In data set [3] (0.1% atropine subconjunctival), the “efficacy as positive control” value is “showed its due efficacy” and the pupil dilation entry is on record as “Pupil dilation occurred”.
Turning to `CC[C@@]12C=C(C(=O)O)n3c4c(c5ccccc53)CCN(CCC1)[C@H]42` [AVA, apovincaminic acid], in data set [3] (AVA 1 μM), the “axial length difference between the eyes” value worked out at 0.07±0.03 mm, the “inhibition rate for the axial length” value worked out at 36.4%, the “inhibition rate for the vitreous chamber depth” value is reported as 34.7% and the ocular abnormalities result is on record as “no ocular abnormalities were observed”. Besides, in data set [3] (AVA 1 μM), the refraction inhibition rate came out at 39.6% and the “vitreous chamber depth difference between the eyes” value stood at 0.06±0.02 mm. Moreover, in data set [3] (FDM, AVA 1 μM subconjunctival 100 μL once a day), the “refraction difference between the eyes” value is on record as −2.65±1.18 D.
